Patent publication EP4289427A1, “DIHYDRO[1,8]NAPHTHYRIDIN-7-ONE AND PYRIDO[3,2-B][1,4]OXAZIN-3-ONE FOR USE IN TREATING CANCER, AND METASTASES IN PARTICULAR” (Anagenesis Biotechnologies, priority 2022, dated 2023)

Key:
EoL-1 cells = assay: Cytotoxicity assay (CellTiter-Glo 2.0) on EoL-1 cells; format: cell-based, Human; settings: incubation 1 day; for IC50: Homo sapiens, EOL1, 24 h
Protocol: (§1) Cytotoxicity assays consist in treating cells with compounds and assessing remaining viability after a defined incubation time, depending on the cell line. CellTiter-Glo® 2.0 reagent allows viability measurement by quantification of ATP present, which is an indicator of metabolically active cells.
(§2) The cancer cell lines were cultivated in their respective growth medium (see tables 6a and 6b). On day 0 of the cytotoxicity assay, the cells were harvested and seeded into a 384-well plate at a defined density in their respective growth medium (see tables 6a and 6b). Compounds to be tested were then added onto the cells and incubated for a defined duration (see tables 6a and 6b). Following incubation, CellTiter-Glo® 2.0 reagent (cat.no. G9241 from Promega) was added into the wells (vol/vol, according to the manufacturer's recommendations), plates were gently shaken and incubated for 10 minutes in the dark at room temperature. Bioluminescence was then measured with a multimode plate reader (Victor Nivo from Perkin Elmer), and cell viability and relative IC50 were determined. Table 6a: Cancer cell characteristics, culture and cytotoxic assay conditions

HUVECs = assay: Tube formation assay (anti-angiogenic activity); format: cell-based, human; settings: for IC50: Homo sapiens, HUVEC
Source text: Angiogenesis is a phenomenon that includes different processes, such as endothelial cell proliferation, migration and differentiation that lead to the formation of new blood vessels. Tube formation assay is a standard in vitro test to assess angiogenesis: briefly, human Umbilical Vein Endothelial cells (hereafter "HUVECs") cultivated on a gelled basement matrix spontaneously proliferate, migrate and differentiate to form tube-like structures, that appear elongated and that connect to each other to form a network.
HUVECs were cultivated in Endothelial Cell Growth Medium (cat.no. C-22010 from Promocell) supplemented with 1% PenStrep (hereafter "HUVEC medium"). On day 0, HUVECs were harvested and transferred into a 384-well plate precoated with 10 µl/well of Cultrex UltiMatrix Reduced Growth factor basement membrane (cat.no. BME001-10 from BioTechne), according to the manufacturer's instructions, at a density of 5000 cells/well in HUVEC medium. Compounds to be tested were then added onto the cells and incubated for 16 to 18 hours at 37°C. After this incubation period, the cells were stained with calcein-AM (cat.no. 10462052 from Fisher Scientific) and pictures were acquired using a confocal fluorescent microscope (IXM from Molecular Devices). Tube formation was measured with MetaXpress® Software.

4T1 cells = assay: Cytotoxicity assay (CellTiter-Glo 2.0) on 4T1 cells; format: cell-based, Mouse; settings: incubation 2 days; for IC50: Mus musculus, 48 h
Protocol: as §1, §2

MDA-MB-231 cells = assay: Cytotoxicity assay (CellTiter-Glo 2.0) on MDA-MB-231 cells; format: cell-based, Human; settings: incubation 3 days; for IC50: Homo sapiens, 72 h
Protocol: as §1, §2

RD cells = assay: Cytotoxicity assay (CellTiter-Glo 2.0) on RD cells; format: cell-based, Human; settings: for IC50: Homo sapiens
Protocol: as §1, §2

CSc1cc(Oc2ccnc3c2OCC(=O)N3)ccc1NC(=O)Nc1ncc(C(C)(C)C)o1 [Compound 025]
IC50 (EoL-1 cells): < 1 nM | Cytotoxicity (EoL-1 cells): +++ (cytotoxicity ≥ 85%)

CC(C)(C)c1cc(NC(=O)Nc2ccc(Oc3ccnc4c3CCC(=O)N4)cc2C(F)(F)F)n(-c2ccc(F)cc2F)n1 [Compound 029, 1-[5-tert-butyl-2-(2,4-difluorophenyl)pyrazol-3-yl]-3-[4-[(7-oxo-6,8-dihydro-5H-1,8-naphthyridin-4-yl)oxy]-2-(trifluoromethyl)phenyl]urea]
IC50 (HUVECs; incubation 16 to 18 hours): 100 to 500 nM | Angiogenesis inhibition (HUVECs; incubation 16 to 18 hours): ++ (80% > angiogenesis inhibition ≥ 50%) | IC50 (4T1 cells): 1000 to 5000 nM | Cytotoxicity (4T1 cells): ++ (50% ≤ cytotoxicity < 85%) | IC50 (MDA-MB-231 cells): 5000 to 10000 nM | Cytotoxicity (MDA-MB-231 cells): + (20 % ≤ cytotoxicity < 50%) | IC50 (EoL-1 cells): 10 to 100 nM | Cytotoxicity (EoL-1 cells): +++ (cytotoxicity ≥ 85%)

CC(C)(C)c1coc(NC(=O)Nc2ccc(Oc3ccnc4c3CCC(=O)N4)cc2C(F)(F)F)n1 [Compound 036]
Cytotoxicity (RD cells; 2 day-treatment): + (20 % ≤ cytotoxicity < 50%) | Cytotoxicity (RD cells; 4 day-treatment): - (cytotoxicity < 20%) | IC50 (RD cells; 48 h, 2 day-treatment): 1000 to 5000 nM | IC50 (RD cells; 96 h, 4 day-treatment): 1000 to 5000 nM | IC50 (4T1 cells): ≥ 10000 nM | Cytotoxicity (4T1 cells): - (cytotoxicity < 20%) | IC50 (MDA-MB-231 cells): 5000 to 10000 nM | Cytotoxicity (MDA-MB-231 cells): + (20 % ≤ cytotoxicity < 50%) | IC50 (EoL-1 cells): ≥ 100 nM | Cytotoxicity (EoL-1 cells): + (20 % ≤ cytotoxicity < 50%)

CC(C)(C)c1cc(NC(=O)Nc2ccc(Oc3ccnc4c3OCC(=O)N4)cc2C(F)(F)F)n(-c2ccc(CCN3CCOCC3)cc2)n1 [Compound 053, 1-[5-tert-butyl-2-[4-(2-morpholinoethyl)phenyl]pyrazol-3-yl]-3-[4-[(3-oxo-4H-pyrido[3,2-b][1,4]oxazin-8-yl)oxy]-2-(trifluoromethyl)phenyl]urea]
IC50 (HUVECs; incubation 16 to 18 hours): < 100 nM | Angiogenesis inhibition (HUVECs; incubation 16 to 18 hours): +++ (angiogenesis inhibition ≥ 80%) | IC50 (4T1 cells): < 1000 nM | Cytotoxicity (4T1 cells): +++ (cytotoxicity ≥ 85%) | IC50 (MDA-MB-231 cells): 1000 to 5000 nM | Cytotoxicity (MDA-MB-231 cells): ++ (50% ≤ cytotoxicity < 85%) | IC50 (EoL-1 cells): 10 to 100 nM | Cytotoxicity (EoL-1 cells): +++ (cytotoxicity ≥ 85%)

COc1cc2nccc(Oc3ccc(NC(=O)NC4CC4)c(Cl)c3)c2cc1C(N)=O [Lenvatinib, reference compound]
IC50 (HUVECs; commercial kinase inhibitors): < 100 nM | Angiogenesis inhibition (HUVECs; commercial kinase inhibitors): ++ (80% > angiogenesis inhibition ≥ 50%) | IC50 (4T1 cells; commercial kinase inhibitors): 1000 to 5000 nM | Cytotoxicity (4T1 cells; commercial kinase inhibitors): + (20 % ≤ cytotoxicity < 50 %) | IC50 (MDA-MB-231 cells; commercial kinase inhibitors): ≥ 10000 nM | Cytotoxicity (MDA-MB-231 cells; commercial kinase inhibitors): - (cytotoxicity < 20 %) | IC50 (EoL-1 cells; commercial kinase inhibitors): 1 to 10 nM | Cytotoxicity (EoL-1 cells; commercial kinase inhibitors): +++ (cytotoxicity ≥ 85%)

Cc1ccc(F)c(NC(=O)Nc2ccc(-c3cccc4[nH]nc(N)c34)cc2)c1 [Linifanib, reference compound]
IC50 (HUVECs; commercial kinase inhibitors): < 100 nM | Angiogenesis inhibition (HUVECs; commercial kinase inhibitors): + (50% > angiogenesis inhibition ≥ 20%)

COc1cc2nccc(Oc3ccc(NC(=O)Nc4cc(C)on4)c(Cl)c3)c2cc1OC [Tivozanib, reference compound]
IC50 (HUVECs; commercial kinase inhibitors): 100 to 500 nM | Angiogenesis inhibition (HUVECs; commercial kinase inhibitors): + (50% > angiogenesis inhibition ≥ 20%) | Cytotoxicity (RD cells; 2 day-treatment, commercial kinase inhibitors): - (cytotoxicity < 20 %) | Cytotoxicity (RD cells; 4 day-treatment, commercial kinase inhibitors): - (cytotoxicity < 20 %) | IC50 (RD cells; 48 h, 2 day-treatment, commercial kinase inhibitors): ≥ 10000 nM | IC50 (RD cells; 96 h, 4 day-treatment, commercial kinase inhibitors): ≥ 10000 nM | IC50 (4T1 cells; commercial kinase inhibitors): 5000 to 10000 nM | Cytotoxicity (4T1 cells; commercial kinase inhibitors): +++ (cytotoxicity ≥ 85 %) | IC50 (MDA-MB-231 cells; commercial kinase inhibitors): 5000 to 10000 nM | Cytotoxicity (MDA-MB-231 cells; commercial kinase inhibitors): ++ (50 % ≤ cytotoxicity < 85 %)
